Assay results published in ChEMBL document CHEMBL3612028, “Design, synthesis, pharmacological evaluation and molecular dynamics of β-amino acids morphan-derivatives as novel ligands for opioid receptors” (Eur J Med Chem, 2015).
pKi: −log10 of the molar value.

Columns and labels:
[1] = Displacement of [3H]-diprenorphine from opioid receptor in rat brain membrane homogenates after 1 hr by liquid scintillation counting; type: cell membranes
[2] = molecular target: Mu opioid receptor-like OR2 (Danio rerio, UniProt B8JHS2); experiment: Displacement of [3H]-diprenorphine from zebrafish mu opioid receptor expressed in HEK293 cells after 1 hr by liquid scintillation counting; type: cell-based
Chain of Mu opioid receptor-like OR2 (B8JHS2 whole entry): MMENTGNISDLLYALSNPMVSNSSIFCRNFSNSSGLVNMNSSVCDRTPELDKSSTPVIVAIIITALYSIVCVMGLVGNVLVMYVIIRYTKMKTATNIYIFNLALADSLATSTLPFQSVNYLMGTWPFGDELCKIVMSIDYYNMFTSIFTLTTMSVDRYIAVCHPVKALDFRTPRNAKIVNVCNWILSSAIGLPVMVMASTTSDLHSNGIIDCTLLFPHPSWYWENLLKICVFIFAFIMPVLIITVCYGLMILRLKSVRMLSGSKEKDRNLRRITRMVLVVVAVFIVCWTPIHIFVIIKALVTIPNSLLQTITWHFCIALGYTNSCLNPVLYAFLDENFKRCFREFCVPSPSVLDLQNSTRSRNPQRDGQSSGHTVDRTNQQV

Compound O=C(O)[C@@H]1[C@@H]2CCC[C@H]1NCC2 has a pKi [1] of under 4.00.

Work on COC(=O)[C@@H]1[C@@H]2CCC[C@H]1N(Cc1ccccc1)CC2 yielded a pKi [1] of 4.83 and a pKi [2] of 4.43.

Compound COC(=O)[C@@H]1[C@@H]2CCC[C@H]1NCC2 has a pKi [1] of 4.77 and a pKi [2] of 4.45.

Work on COC(=O)[C@@H]1[C@@H]2CCC[C@H]1N(C(=O)[C@@H](N)Cc1ccccc1)CC2 yielded a pKi [1] of 4.48 and a pKi [2] of 4.12.

O=C(Oc1ccccc1)[C@@H]1[C@@H]2CCC[C@H]1NCC2 showed a pKi [1] of 4.96 and a pKi [2] of 4.49.

With COC(=O)[C@H](Cc1ccccc1)NC(=O)[C@@H]1[C@@H]2CCC[C@H]1NCC2 the pKi [1] was 4.83 and the pKi [2] was 4.11.

In the case of O=C(Oc1cccc(O)c1)[C@@H]1[C@@H]2CCC[C@H]1NCC2, the pKi [1] was 5.39 and the pKi [2] was 5.02.

COC(=O)[C@@H]1[C@@H]2CCC[C@H]1N(CCc1ccccc1)CC2 showed a pKi [1] of 5.57 and a pKi [2] of 5.08.

O=C(Oc1ccc(O)cc1)[C@@H]1[C@@H]2CCC[C@H]1NCC2 showed a pKi [1] of 5.72 and a pKi [2] of 4.90.
